Reference: US6552080B1, “Fungicidal compounds having a fluorovinyl-or fluoropropenyl-oxyphenyloxime moiety and process for the preparation thereof” (Korea Research Institute of Chemical Technology, priority 1999, dated 2003)
Like-named read-outs stand apart in the source and are kept apart here.

Experiments:
[1] = test system: Pyricularia oryzae Carvara KA301; assay type: in vivo; details: for RCV (Fungicidal Activities, C.V.): Rice Blast
Botrytis cinerae = test: Fungicidal activity against Cucumber Gray Mold Rot (CGM) disease; assay type: in vivo; details: for CGM (Fungicidal Activities, C.V.): Cucumber Gray Mold Rot, concentration 50 ppm; for Fungicidal Activities CGM (C.V.): 50 ppm
Description: Botrytis cinerae, which was isolated from cucumber infected thereby, was inoculated on a PDA agar medium and cultured under a 12L/12D cycle at 25° C. for 15 days to form spore. The spores were scraped, filtered through a gauze and then suspended in potato dextrose liquid medium at a concentration of 1×10^6 spore/ml. The spore suspension was sprayed on a cucumber plant having one leaf. The cucumber plant was held in a humidified room at 20° C. for 3 days. L.A. on a leaf was measured to calculate an C.V.

Phytophthora infestans = assay type: in vivo; details: for TLB (Fungicidal Activities, C.V.): Tomato Late Blight
Puccinia recondita = test: Fungicidal activity against Wheat Leaf Rust (WLR) disease; assay type: in vivo; details: for WLR (Fungicidal Activities, C.V.): Wheat Leaf Rust
Erysiphae graminis = test: Fungicidal activity against Barley Powdery Mildew (BPM) disease; assay type: in vivo; details: for BPM (Fungicidal Activities, C.V.): Barley Powdery Mildew
Rhizoctonia solani AG-1 = test: Fungicidal activity against Rice Sheath Blight (RSB) disease; details: for RSB (Fungicidal Activities, C.V.): Rice Sheath Blight

SMILES | RCV (Fungicidal Activities, C.V.) ([1]; concentration 2 ppm) | RCV (Fungicidal Activities, C.V.) ([1]; concentration 50 ppm) | CGM (Fungicidal Activities, C.V.) (Botrytis cinerae) | TLB (Fungicidal Activities, C.V.) (Phytophthora infestans; concentration 50 ppm) | WLR (Fungicidal Activities, C.V.) (Puccinia recondita; concentration 2 ppm) | WLR (Fungicidal Activities, C.V.) (Puccinia recondita; concentration 50 ppm) | BPM (Fungicidal Activities, C.V.) (Erysiphae graminis; concentration 2 ppm) | BPM (Fungicidal Activities, C.V.) (Erysiphae graminis; concentration 50 ppm) | RSB (Fungicidal Activities, C.V.) (Rhizoctonia solani AG-1; concentration 50 ppm) | RCV (Fungicidal Activities, C.V.) ([1]; concentration 10 ppm) | WLR (Fungicidal Activities, C.V.) (Puccinia recondita; concentration 10 ppm) | BPM (Fungicidal Activities, C.V.) (Erysiphae graminis; concentration 10 ppm) | further results
CNC(=O)C(=NOC)c1ccccc1CON=Cc1cccc(OC(F)=Cc2cccc(Cl)c2)c1 [Compound 38] | 97% | 100% | 0% | 0% | 99% | 100% | 87% | 100% | 64% | – | – | – | –
CO/C=C(/C(=O)OC)c1ccccc1CON=C(C)c1cccc(OC(F)=Cc2ccccc2)c1 [Compound 40, Methyl (2E)-3-Methoxy-2-{2′-[[[3″-(1′″-fluoro-2′″-phenyl-1′″-ethenyloxy)phenyl]methylimino]oxy]methylphenyl}propenoate] | 99% | 100% | 75% | 97% | 99% | 100% | 100% | 100% | 95% | 100% | 100% | 100% | TLB (Fungicidal Activities, C.V.) (Phytophthora infestans; concentration 2 ppm): 12%; TLB (Fungicidal Activities, C.V.) (Phytophthora infestans; concentration 10 ppm): 68%; RSB (Fungicidal Activities, C.V.) (Rhizoctonia solani AG-1; concentration 2 ppm): 70%; RSB (Fungicidal Activities, C.V.) (Rhizoctonia solani AG-1; concentration 10 ppm): 75%
CCCCc1ccc(C=C(F)Oc2cccc(C(C)=NOCc3ccccc3C(=NOC)C(=O)OC)c2)cc1 [Compound 70] | 99% | 100% | 50% | 0% | 93% | 97% | 83% | 100% | 85% | – | – | – | TLB (Fungicidal Activities, C.V.) (Phytophthora infestans; concentration 2 ppm): 12%; RSB (Fungicidal Activities, C.V.) (Rhizoctonia solani AG-1; concentration 2 ppm): 20%
CCc1ccc(C=C(F)Oc2cccc(C=NOCc3ccccc3C(=COC)C(=O)OC)c2)cc1 [Compound 6] | 8% | 99% | 44% | 33% | 98% | 100% | 97% | 100% | 75% | 58% | 100% | 99% | –
CON=C(C(=O)OC)c1ccccc1CON=C(C)c1cccc(OC(F)=C(c2cccc(C(F)(F)F)c2)C(F)(F)F)c1 [Compound 188] | – | – | – | – | – | – | – | – | – | – | – | – | Fungicidal Activities RCV (C.V.) ([1]; 2 ppm): 76%; Fungicidal Activities RCV (C.V.) ([1]; 50 ppm): 71%; Fungicidal Activities CGM (C.V.) (Botrytis cinerae): 0%; Fungicidal Activities TLB (C.V.) (Phytophthora infestans; 2 ppm): 0%; Fungicidal Activities TLB (C.V.) (Phytophthora infestans; 50 ppm): 40%; Fungicidal Activities WLR (C.V.) (Puccinia recondita; 2 ppm): 66%; Fungicidal Activities WLR (C.V.) (Puccinia recondita; 50 ppm): 95%; Fungicidal Activities BPM (C.V.) (Erysiphae graminis; 2 ppm): 91%; Fungicidal Activities BPM (C.V.) (Erysiphae graminis; 50 ppm): 100%; Fungicidal Activities RSB (C.V.) (Rhizoctonia solani AG-1; 2 ppm): 0%; Fungicidal Activities RSB (C.V.) (Rhizoctonia solani AG-1; 50 ppm): 55%
COC=C(C(=O)OC)c1ccccc1CON=Cc1cccc(OC(F)=C(c2cccc(Cl)c2)C(F)(F)F)c1 [Compound 116] | – | 0% | 0% | 14% | 53% | 96% | 33% | 100% | 15% | – | 96% | 96% | –
CNC(=O)C(=NOC)c1ccccc1CON=C(C)c1cccc(OC(F)=C(c2cccc(OC)c2)C(F)(F)F)c1 [Compound 197] | – | – | – | – | – | – | – | – | – | – | – | – | Fungicidal Activities RCV (C.V.) ([1]; 2 ppm): 100%; Fungicidal Activities RCV (C.V.) ([1]; 50 ppm): 100%; Fungicidal Activities CGM (C.V.) (Botrytis cinerae): 85%; Fungicidal Activities TLB (C.V.) (Phytophthora infestans; 2 ppm): 0%; Fungicidal Activities TLB (C.V.) (Phytophthora infestans; 50 ppm): 50%; Fungicidal Activities WLR (C.V.) (Puccinia recondita; 2 ppm): 98%; Fungicidal Activities WLR (C.V.) (Puccinia recondita; 50 ppm): 100%; Fungicidal Activities BPM (C.V.) (Erysiphae graminis; 2 ppm): 100%; Fungicidal Activities BPM (C.V.) (Erysiphae graminis; 50 ppm): 100%; Fungicidal Activities RSB (C.V.) (Rhizoctonia solani AG-1; 2 ppm): 35%; Fungicidal Activities RSB (C.V.) (Rhizoctonia solani AG-1; 50 ppm): 80%
COC=C(C(=O)OC)c1ccccc1CON=Cc1cccc(OC(F)=Cc2cccc(Cl)c2)c1 [Compound 13] | 41% | 93% | 36% | 46% | 99% | 100% | 99% | 100% | 70% | 86% | 100% | 100% | –
